In US10576102B2, “KOC1-derived peptide and vaccine including same” (ONCOTHERAPY SCIENCE, INC., priority 2014, dated 2020):

Legend:
Assay type in all cases: cell-based, human
peptide-pulsed C1R-A33 = assay: IFN-gamma ELISA of CTL lines and CTL clones (HLA-A*3303)
Description: (§1) CTLs were propagated in culture using methods similar to those disclosed by Riddell et al. (Walter E A et al., N Engl J Med 1995, 333(16): 1038-44; Riddell S R et al., Nat Med 1996, 2(2): 216-23). The CTLs were co-cultured in a total of 25 ml AIM-V medium containing 5% AS (AIM-V/5% AS) and 40 ng/ml anti-CD3 antibody with two types of Mitomycin C-treated human B lymphoblastoid cell lines at 5×10^6 cells/flask. One day after beginning of the culturing, 120 IU/ml IL-2 was added to the culture. On days 5, 8 and 11, a fresh AIM-V/5% AS medium containing 30 IU/ml IL-2 was added to the culture (Tanaka H et al., Br J Cancer 2001, 84(1): 94-9; Umano Y et al., Br J Cancer 2001, 84(8): 1052-7; Uchida N et al., Clin Cancer Res 2004, 10(24): 8577-86; Suda T et al., Cancer Sci 2006, 97(5): 411-9; Watanabe T et al., Cancer Sci 2005, 96(8): 498-506).
(§2) Dilution of CTLs was carried out to make 0.3, 1 and 3 cells/well in 96 round-bottomed microtiter plates (Nalge Nunc International). The CTLs were co-cultured with two types of Mitomycin C-treated human B lymphoblastoid cell lines at 1×10^4 cells/well in a total of 150 micro-1/well AIM-V/5% AS medium with 30 ng/ml anti-CD3 antibody and 125 IU/ml IL-2. Ten days later, IL-2 was added to the medium at 50 micro-1/well to reach a final concentration of 125 IU/ml. On day 14, the CTL activity was tested, and the CTL clones were propagated using the same method as described above (Uchida N et al., Clin Cancer Res 2004, 10(24): 8577-86; Suda T et al., Cancer Sci 2006, 97(5): 411-9; Watanabe T et al., Cancer Sci 2005, 96(8): 498-506).
Specifically, peptide-pulsed C1R-A33 (1×10^4 cells/well) was prepared as the stimulator cell. The induced CTLs, i.e., CTL lines and CTL clones, were used as the responder cell. The IFN-gamma ELISPOT assay and IFN-gamma ELISA were performed according to the manufacturer's manual.

peptide-pulsed C1R-A03 = assay: In vitro CTL induction, IFN-gamma ELISPOT assay (HLA-A*0301); details: CTLs induced with peptide-pulsed DCs from HLA-A*0301-positive volunteers; day 21; vs peptide-pulsed C1R-A03, compared with unpulsed control
Description: C1R (C1R-A03) that stably expresses HLA-A*0301 was used as a stimulator cell. A cDNA encoding the open-reading frame of HLA-A*0301 was amplified by PCR and cloned into an expression vector. C1R cells were transfected with the expression vector, and then selected using G418 (Invitrogen) for two weeks. The G418-selected cells were seeded into wells containing G418-added culture medium in a 96-well plate, and further cultured for 30 days. The exogenous HLA-A*0301 expression in C1R cells was verified by flow cytometric analysis.
Monocyte-derived dendritic cells (DCs) were used as the antigen-presenting cell to induce a cytotoxic T lymphocyte (CTL) response against peptides presented on human leukocyte antigens (HLAs). As described in the other sections, DCs were generated in vitro (Nakahara S et al., Cancer Res 2003, 63(14): 4112-8). Specifically, peripheral-blood mononuclear cells isolated from healthy volunteers (HLA-A*0301-positive) with the Ficoll-Paque plus solution (Pharmacia) were separated by attaching to plastic tissue culture dishes (Becton Dickinson) and concentrated as a monocyte fraction. The monocyte-concentrated population was cultured in the presence of 1000 IU/ml granulocyte macrophage colony-stimulating factor (R&D System) and 1000 IU/ml interleukin(IL)-4 (R&D System) in an AIM-V medium (Invitrogen) containing 2% heat-inactivated autologous serum (AS). After seven days of culturing, the cytokine-induced DCs were pulsed with 20 micro-g/ml each of the synthesized peptides in an AIM-V medium at 37 degrees C. for three hours in the presence of 3 micro-g/ml beta 2-microglobulin. The generated cells appeared to express on their cell surface DC-associated molecules such as CD80, CD83, CD86 and HLA class II (data not shown). Next, these peptide-pulsed DCs were inactivated by X-ray irradiation (20 Gy), and mixed in a 1:20 ratio with autologous CD8^+ T cells obtained by positive selection using the CD8 Positive Isolation Kit (Dynal). These culture products were seeded in a 48-well plate (Corning). Each well was made to contain 1.5×10^4 peptide-pulsed DCs, 3×10^5 CD8^+ T cells and 10 ng/ml IL-7 (R&D System) in 0.5 ml of the AIM-V/2% AS medium. Three days later, these culture products were added with a final concentration of 20 IU/ml IL-2 (CHIRON). On day 7 and day 14, T cells were further stimulated with peptide-pulsed autologous DCs. The DCs were prepared every time by the same method as above. […]

peptide-pulsed C1R-A11 = assay: IFN-gamma ELISA of CTL lines and CTL clones (HLA-A*1101); details: CTL lines; target cells pulsed with the peptide vs not pulsed; C1R-A11
Description: as §1, §2
Specifically, peptide-pulsed C1R-A11 (1×10^4 cells/well) was prepared as the stimulator cell. The induced CTLs, i.e., CTL lines and CTL clones, were used as the responder cell. The IFN-gamma ELISPOT assay and IFN-gamma ELISA were performed according to the manufacturer's manual.

| Sequence | IFN-gamma production of CTL clones, ELISA (peptide-pulsed C1R-A33; CTL clones by limiting dilution, peptide-pulsed C1R-A33, listed as KOC1-A33-10-281) | IFN-gamma production of CTL lines, ELISA (peptide-pulsed C1R-A33; CTL lines, target cells pulsed with the peptide vs not pulsed, C1R-A33) | peptide-specific CTL activity (IFN-gamma production), ELISPOT (peptide-pulsed C1R-A03) | IFN-gamma production of CTL lines, ELISA (peptide-pulsed C1R-A11) |
| --- | --- | --- | --- | --- |
| ILAHNNFVGR (a peptide derived from KOC1) [SEQ ID NO: 52] | Potent IFN-gamma production | potent IFN-gamma production | potent IFN-gamma production |  |
| TQFVGAIIGK (a peptide derived from KOC1) [SEQ ID NO: 30] |  |  | potent IFN-gamma production | potent IFN-gamma production |
